Data as given in PubChem BioAssay (NCI).
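The concentration for 50% growth inhibition is given as GI50. TGI is the concentration that stops growth completely.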

Key:
Experiment in all cases: NCI-60 cell line screen, 384-well format
HCT-15 colon = tested on: HCT-15 colon
SK-MEL-5 melanoma = tested on: SK-MEL-5 melanoma
COLO 205 colon = tested on: COLO 205 colon
SF-539 CNS = tested on: SF-539 CNS
A549 NSCLC = tested on: A549 NSCLC
NCI-H322M lung = tested on: NCI-H322M lung
MDA-MB-468 breast = tested on: MDA-MB-468 breast
NCI-H226 lung = tested on: NCI-H226 lung
K-562 leukemia = tested on: K-562 leukemia
HOP-62 NSCLC = tested on: HOP-62 NSCLC
DU-145 prostate = tested on: DU-145 prostate
NCI-H522 lung = tested on: NCI-H522 lung
NCI-H460 NSCLC = tested on: NCI-H460 NSCLC
TK-10 renal = tested on: TK-10 renal
M14 melanoma = tested on: M14 melanoma
KM12 colon = tested on: KM12 colon
ACHN renal = tested on: ACHN renal
HS 578T breast = tested on: HS 578T breast
SF-268 CNS = tested on: SF-268 CNS
HT29 colon = tested on: HT29 colon
SNB-19 CNS = tested on: SNB-19 CNS
IGROV1 ovarian = tested on: IGROV1 ovarian
MDA-MB-435 melanoma = tested on: MDA-MB-435 melanoma
A498 renal = tested on: A498 renal
HL-60(TB) leukemia = tested on: HL-60(TB) leukemia
LOX IMVI melanoma = tested on: LOX IMVI melanoma
OVCAR-4 ovarian = tested on: OVCAR-4 ovarian
786-0 renal = tested on: 786-0 renal
U251 glioblastoma = tested on: U251 glioblastoma
RXF 393 renal = tested on: RXF 393 renal
SW-620 colon = tested on: SW-620 colon
SK-OV-3 ovarian = tested on: SK-OV-3 ovarian
OVCAR-3 ovarian = tested on: OVCAR-3 ovarian
OVCAR-8 ovarian = tested on: OVCAR-8 ovarian
HOP-92 NSCLC = tested on: HOP-92 NSCLC
CCRF-CEM leukemia = tested on: CCRF-CEM leukemia
MOLT-4 leukemia = tested on: MOLT-4 leukemia
NCI-H23 lung = tested on: NCI-H23 lung
UACC-62 melanoma = tested on: UACC-62 melanoma
SN12C renal = tested on: SN12C renal
HCC-2998 colon = tested on: HCC-2998 colon
BT-549 breast = tested on: BT-549 breast
HCT-116 colon = tested on: HCT-116 colon
SK-MEL-28 melanoma = tested on: SK-MEL-28 melanoma
UACC-257 melanoma = tested on: UACC-257 melanoma
PC-3 prostate = tested on: PC-3 prostate
EKVX NSCLC = tested on: EKVX NSCLC
NCI/ADR-RES ovarian = tested on: NCI/ADR-RES ovarian
RPMI-8226 leukemia = tested on: RPMI-8226 leukemia
MCF7 breast = tested on: MCF7 breast
SNB-75 CNS = tested on: SNB-75 CNS
SF-295 CNS = tested on: SF-295 CNS
MALME-3M melanoma = tested on: MALME-3M melanoma
CAKI-1 renal = tested on: CAKI-1 renal
SK-MEL-2 melanoma = tested on: SK-MEL-2 melanoma

## CC1=CC(=O)C=CC1=Nc1ccc(N(C)C)cc1
HCT-15 colon
  GI50: 11.4 µM
  TGI: 23.6 µM
SK-MEL-5 melanoma
  GI50: 6.37 µM
  TGI: 19.9 µM
COLO 205 colon
  GI50: 2.92 µM
  TGI: 7.43 µM
SF-539 CNS
  GI50: 10.1 µM
  TGI: 21.7 µM
A549 NSCLC
  GI50: 15.3 µM
  TGI: 28.8 µM
NCI-H322M lung
  GI50: 17.6 µM
  TGI: 31.5 µM
MDA-MB-468 breast
  GI50: 0.361 µM
  TGI: 1.34 µM
NCI-H226 lung
  GI50: 8.38 µM
  TGI: 20.6 µM
K-562 leukemia
  GI50: 12.1 µM
  TGI: 24.5 µM
HOP-62 NSCLC
  GI50: 3.92 µM
  TGI: 9.14 µM
DU-145 prostate
  GI50: 14 µM
  TGI: 27 µM
NCI-H522 lung
  GI50: 2.21 µM
  TGI: 10.4 µM
NCI-H460 NSCLC
  GI50: 16.4 µM
  TGI: 30.2 µM
TK-10 renal
  GI50: 10.7 µM
  TGI: 22.6 µM
M14 melanoma
  GI50: 12.5 µM
  TGI: 25 µM
KM12 colon
  GI50: 12.6 µM
  TGI: 25.3 µM
ACHN renal
  GI50: 5.29 µM
  TGI: 18.7 µM
HS 578T breast
  GI50: 12.3 µM
  TGI: 24.8 µM
SF-268 CNS
  GI50: 16.5 µM
  TGI: 30.1 µM
HT29 colon
  GI50: 14.4 µM
  TGI: 27.7 µM
SNB-19 CNS
  GI50: 15.3 µM
  TGI: 28.7 µM
IGROV1 ovarian
  GI50: 12.1 µM
  TGI: 24.5 µM
MDA-MB-435 melanoma
  GI50: 2.52 µM
  TGI: 6.2 µM
A498 renal
  GI50: 11.4 µM
  TGI: 23.6 µM
HL-60(TB) leukemia
  GI50: 1.33 µM
  TGI: 2.62 µM
LOX IMVI melanoma
  GI50: 11.6 µM
  TGI: 23.9 µM
OVCAR-4 ovarian
  GI50: 2.58 µM
  TGI: 12.4 µM
786-0 renal
  GI50: 13 µM
  TGI: 25.7 µM
U251 glioblastoma
  GI50: 10.4 µM
  TGI: 22.2 µM
RXF 393 renal
  GI50: 4.87 µM
  TGI: 16.6 µM
SW-620 colon
  GI50: 13.4 µM
  TGI: 26.4 µM
SK-OV-3 ovarian
  GI50: 15.5 µM
  TGI: 29 µM
OVCAR-3 ovarian
  GI50: 1.6 µM
  TGI: 3.06 µM
OVCAR-8 ovarian
  GI50: 3.49 µM
  TGI: 9.79 µM
HOP-92 NSCLC
  GI50: 2.65 µM
  TGI: 6.19 µM
CCRF-CEM leukemia
  GI50: 1.43 µM
  TGI: 2.77 µM
MOLT-4 leukemia
  GI50: 1.38 µM
  TGI: 2.68 µM
NCI-H23 lung
  GI50: 4.94 µM
  TGI: 18 µM
UACC-62 melanoma
  GI50: 1.83 µM
  TGI: 3.92 µM
SN12C renal
  GI50: 11.6 µM
  TGI: 23.9 µM
HCC-2998 colon
  GI50: 5.21 µM
  TGI: 20.1 µM
BT-549 breast
  GI50: 6.14 µM
  TGI: 18.6 µM
HCT-116 colon
  GI50: 2.67 µM
  TGI: 8.2 µM
SK-MEL-28 melanoma
  GI50: 15.6 µM
  TGI: 29 µM
UACC-257 melanoma
  GI50: 6.22 µM
  TGI: 18.4 µM
PC-3 prostate
  GI50: 3.22 µM
  TGI: 10.4 µM
EKVX NSCLC
  GI50: 11.3 µM
  TGI: 23.5 µM
NCI/ADR-RES ovarian
  GI50: 6.51 µM
  TGI: 19.2 µM
RPMI-8226 leukemia
  GI50: 1.76 µM
  TGI: 3.19 µM
MCF7 breast
  GI50: 3.46 µM
  TGI: 13.3 µM
SNB-75 CNS
  GI50: 17.4 µM
  TGI: 31.2 µM
SF-295 CNS
  GI50: 15.3 µM
  TGI: 28.7 µM
MALME-3M melanoma
  GI50: 15.3 µM
  TGI: 28.6 µM
CAKI-1 renal
  GI50: 8.66 µM
  TGI: 20.8 µM
SK-MEL-2 melanoma
  GI50: 1.77 µM
  TGI: 3.26 µM
